Consider 4 molecules from the NIST ThermoML archive (doi:10.1021/je301095j).

For the data set the following is noted: 101.33 kPa, Liquid; for viscosity: Capillary tube (Ostwald / Ubbelohde) method; for mass density: Vibrating tube method.

Numbers after ± are expanded uncertainties.

For the molecule `CCO` [ethanol], the viscosity (as a rule, the internal friction of a fluid under shear) is, setting by setting: (283.15 K) 1.459 ± 0.009 mPa·s; (293.15 K) 1.209 ± 0.007 mPa·s; (298.15 K) 1.098 ± 0.007 mPa·s; (303.15 K) 0.998 ± 0.006 mPa·s; (313.15 K) 0.831 ± 0.005 mPa·s. Moreover, the mass density (commonly mass per unit of volume) runs as follows: (283.15 K) 797.97 ± 0.12 kg/m3; (293.15 K) 789.43 ± 0.12 kg/m3; (298.15 K) 785.16 ± 0.12 kg/m3; (303.15 K) 780.88 ± 0.12 kg/m3; (313.15 K) 772.34 ± 0.13 kg/m3.
Consider `CCCCCO` [pentan-1-ol], for which the viscosity (283.15 K) was determined as 5.463 ± 0.04 mPa·s; the viscosity (293.15 K) was 4.037 ± 0.03 mPa·s; the viscosity (298.15 K) is on record as 3.49 ± 0.026 mPa·s; the viscosity (303.15 K) was 3.032 ± 0.023 mPa·s; the viscosity (313.15 K) was 2.319 ± 0.018 mPa·s. Further, the mass density reads like this: (283.15 K) 821.95 ± 0.24 kg/m3; (293.15 K) 814.6 ± 0.24 kg/m3; (298.15 K) 810.93 ± 0.24 kg/m3; (303.15 K) 807.25 ± 0.24 kg/m3; (313.15 K) 799.9 ± 0.24 kg/m3.
Take `CCCCCCCCO` [octan-1-ol]: the viscosity amounted to 13.52 ± 0.07 mPa·s (283.15 K); 9.167 ± 0.05 mPa·s (293.15 K); 7.618 ± 0.042 mPa·s (298.15 K); 6.395 ± 0.036 mPa·s (303.15 K); 4.628 ± 0.028 mPa·s (313.15 K). Also, the mass density came out at 832.11 ± 0.13 kg/m3 (283.15 K); 825.13 ± 0.13 kg/m3 (293.15 K); 821.63 ± 0.14 kg/m3 (298.15 K); 818.14 ± 0.14 kg/m3 (303.15 K); 811.15 ± 0.14 kg/m3 (313.15 K).
For the molecule `COCCOC` [1,2-dimethoxyethane], the viscosity by setting is: (283.15 K) 0.493 ± 0.004 mPa·s; (293.15 K) 0.438 ± 0.003 mPa·s; (298.15 K) 0.414 ± 0.003 mPa·s; (303.15 K) 0.392 ± 0.003 mPa·s; (313.15 K) 0.353 ± 0.003 mPa·s. The mass density by setting is: (283.15 K) 877.72 ± 0.12 kg/m3; (293.15 K) 866.71 ± 0.12 kg/m3; (298.15 K) 861.2 ± 0.12 kg/m3; (303.15 K) 855.7 ± 0.13 kg/m3; (313.15 K) 844.69 ± 0.13 kg/m3.
